Source: ChEMBL document CHEMBL1201862, “PubChem BioAssay data set” (2004)
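These data come from cells grown in 96-well plates and exposed to compound for 48 hours at five concentrations. Here, GI50 denotes the concentration required for 50% inhibition of growth.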 Active and inactive are the calls of the source. Rule as the data show it: active = GI50 up to about 1.1 µM and inactive = higher.

How the values were obtained:
Assay in all cases: growth of human tumour cells (NCI), 48 h
[1] = test system: Malme-3M
[2] = test system: COLO 205
[3] = test system: SK-MEL-5
[4] = test system: NCI/ADR-RES
[5] = test system: SW-620
[6] = test system: SK-MEL-2
[7] = test system: SK-OV-3
[8] = test system: HCC 2998
[9] = test system: SR
[10] = test system: TK-10
[11] = test system: SN12C
[12] = test system: SF-268
[13] = test system: CCRF-CEM
[14] = test system: SNB-75
[15] = test system: IGROV-1
[16] = test system: RPMI-8226
[17] = test system: LOX IMVI
[18] = test system: UACC-257
[19] = test system: RXF 393
[20] = test system: MDA-N

| SMILES | GI50 [1] | GI50 [2] | GI50 [3] | GI50 [4] | GI50 [5] | GI50 [6] | GI50 [7] | GI50 [8] | GI50 [9] | GI50 [10] | GI50 [11] | GI50 [12] | GI50 [13] | GI50 [14] | GI50 [15] | GI50 [16] | GI50 [17] | GI50 [18] | GI50 [19] | GI50 [20] |
| --- | --- | --- | --- | --- | --- | --- | --- | --- | --- | --- | --- | --- | --- | --- | --- | --- | --- | --- | --- | --- |
| Brc1cccc(Nc2nc(-c3cccs3)nc3ccc(Br)cc23)c1 | 25.4 µM (inactive) | 33 µM (inactive) | 14 µM (inactive) | 30.7 µM (inactive) | 26.9 µM (inactive) | 32.1 µM (inactive) | > 100 µM (inactive) | 20.2 µM (inactive) | 1.48 µM (inactive) | 24.7 µM (inactive) | 22.7 µM (inactive) | 26.3 µM (inactive) | 1.51 µM (inactive) | 41.2 µM (inactive) | 26.7 µM (inactive) | 44.9 µM (inactive) | 31.3 µM (inactive) | 26.6 µM (inactive) | – | – |
| COC(=O)Cc1cc(=O)n2c3ccccc3n(C)c2c1C#N | > 100 µM (inactive) | > 100 µM (inactive) | 52.2 µM (inactive) | – | > 100 µM (inactive) | > 100 µM (inactive) | > 100 µM (inactive) | > 100 µM (inactive) | > 100 µM (inactive) | > 100 µM (inactive) | > 100 µM (inactive) | > 100 µM (inactive) | – | 68.7 µM (inactive) | > 100 µM (inactive) | > 100 µM (inactive) | > 100 µM (inactive) | > 100 µM (inactive) | > 100 µM (inactive) | – |
| CN(C)C(=S)/N=c1\ss/c(=N\S(=O)(=O)c2ccccc2)n1C | > 100 µM (inactive) | – | > 100 µM (inactive) | – | > 100 µM (inactive) | > 100 µM (inactive) | > 100 µM (inactive) | > 100 µM (inactive) | > 100 µM (inactive) | > 100 µM (inactive) | > 100 µM (inactive) | > 100 µM (inactive) | > 100 µM (inactive) | 39.2 µM (inactive) | > 100 µM (inactive) | > 100 µM (inactive) | > 100 µM (inactive) | > 100 µM (inactive) | > 100 µM (inactive) | – |
| COC(=O)c1cc(C)ccc1/C=C1\Cc2cc(C)c(C)cc2C1=O | > 100 µM (inactive) | – | > 100 µM (inactive) | – | > 100 µM (inactive) | 60.3 µM (inactive) | – | > 100 µM (inactive) | > 100 µM (inactive) | > 100 µM (inactive) | > 100 µM (inactive) | 41.1 µM (inactive) | 0.108 µM (active) | 17.5 µM (inactive) | > 100 µM (inactive) | > 100 µM (inactive) | > 100 µM (inactive) | > 100 µM (inactive) | 50.5 µM (inactive) | > 100 µM (inactive) |
| [N-]=[N+]=NC(CBr)c1cn([C@H]2C[C@H](O)[C@@H](CO)O2)c(=O)[nH]c1=O (some centres undefined) | > 100 µM (inactive) | > 100 µM (inactive) | > 100 µM (inactive) | – | > 100 µM (inactive) | > 100 µM (inactive) | > 100 µM (inactive) | > 100 µM (inactive) | > 100 µM (inactive) | > 100 µM (inactive) | > 100 µM (inactive) | – | > 100 µM (inactive) | > 100 µM (inactive) | > 100 µM (inactive) | > 100 µM (inactive) | > 100 µM (inactive) | – | > 100 µM (inactive) | – |
| SC[C@@H]1COC[C@H](CS)S1 | – | > 100 µM (inactive) | > 100 µM (inactive) | – | > 100 µM (inactive) | – | > 100 µM (inactive) | > 100 µM (inactive) | > 100 µM (inactive) | > 100 µM (inactive) | > 100 µM (inactive) | > 100 µM (inactive) | > 100 µM (inactive) | 58.9 µM (inactive) | > 100 µM (inactive) | – | > 100 µM (inactive) | > 100 µM (inactive) | – | > 100 µM (inactive) |
| CN(C)CCNC(=O)c1cccc2nc3cc(Cl)ccc3nc12 | 1.85 µM (inactive) | 1.86 µM (inactive) | 3.19 µM (inactive) | – | 1.06 µM (active) | 2.47 µM (inactive) | 5.94 µM (inactive) | 2.65 µM (inactive) | 0.531 µM (active) | 2.7 µM (inactive) | 2.07 µM (inactive) | – | – | 2.52 µM (inactive) | 5.25 µM (inactive) | 3.07 µM (inactive) | 1.26 µM (inactive) | 2.82 µM (inactive) | 2.15 µM (inactive) | – |
| CCC(C(=O)C(=O)C(CC)P1(=O)OC(C)(C)CN1C(C)(C)C)P1(=O)OC(C)(C)CN1C(C)(C)C (centres undefined) | – | > 100 µM (inactive) | > 100 µM (inactive) | > 100 µM (inactive) | > 100 µM (inactive) | > 100 µM (inactive) | > 100 µM (inactive) | > 100 µM (inactive) | 60.4 µM (inactive) | > 100 µM (inactive) | > 100 µM (inactive) | > 100 µM (inactive) | > 100 µM (inactive) | 49.7 µM (inactive) | > 100 µM (inactive) | 43.6 µM (inactive) | > 100 µM (inactive) | > 100 µM (inactive) | > 100 µM (inactive) | – |
